Consider one compound from patent publication US11344534B2, “Cholinergic agonism for the treatment of pancreatic cancer” (priority 2017, dated 2022).

“Also recorded” adds a separate entry of the source.

Assay [1] concerns Panc1 cells. Description: Subcutaneous implantation of 25,000 pilocarpine-pretreated Panc1 cells into NOD/SCID mice. The assay is classed as in vivo, mouse. The following applies: 25,000 Panc1 cells pretreated with pilocarpine for 72 hours vs untreated Panc1 cells. How it is done:
To address the possible parasympathetic effects on sternness, human pancreatic cancer cells (Panc1 and BxPC3) were treated with pilocarpine.
To address the possible parasympathetic effects on stemness, human pancreatic cancer cells (Panc1 and BxPC3) were treated with pilocarpine.
LSL-Kras^+/LSL-G12D, LSL-Trp53^+/R172H, and Pdx1-Cre mice were bred by Dr. Kenneth P. Olive and co-workers. Chrm1KO mice (C57BL/6-Chrm1tm1 Stl/J, (M1RKO) mice^1 were purchased from the Jackson Laboratory. KC mice and KPC mice were crossed with M1RKO mice. In the vagotomy experiments, KC mice received pyloroplasty with or without vagotomy at 8 weeks, and some KC+VxPP mice were treated with bethanechol ([…] in drinking water) immediately after surgery and then sacrificed at 20 weeks. KPC mice in treatment studies were palpated weekly for tumors in the pancreas. Once a tumor was suspected, KPC mice were screened by VEVO 2100—Ultrasound Imaging System (FUJIFILM VisualSonics) for pancreatic cancer. KPC mice were treated with gemcitabine, given by i.p. injection 100 mg/kg biweekly, with or without bethanechol, when a tumor size of 3-5 mm was detected using ultrasound. Mice were sacrificed when the mice were moribund. NOD/SCID mice were implanted with Panc1 cells subcutaneously and sacrificed at 30 days after implantation. For liver metastatic experiments, WT type C57/B6 mice received a splenic injection of labeled Panc02 cells, followed by hemi-splenectomy. The mice were then divided into three groups. […] Mice were then sacrificed when moribund. At necropsy, hepatic metastases that could clearly be identified as tumor nodules on gross inspection were separated. All animal studies and procedures were approved by the IACUC committee at Columbia University. All mice were bred under specific pathogen free conditions. Comparisons were made with age- and sex-matched control animals.

Assay [2] concerns CD44+CD24+EpCAM+ population of Panc1 and BxPC3 cells. As to the kind of experiment: Flow cytometry (FACS) of cancer stem cell population. The assay is classed as cell-based, human. The following applies: for CD44+CD24+EpCAM+ cancer stem cell population (FACS): human pancreatic cancer cells, 72 hours pilocarpine. How it is done:
Panc-1 cells were grown in 6-well plate to around ˜70% confluent, changed the 0.5% FBS medium, added the drugs respectively and incubated them for further 72 hrs incubation in a typical CO2 incubator (˜20% O2). Afterwards, cells were kept on ice in blocking solution (PBS pH 7.2 containing ? 3% bovine serum albumin, 2 mM EDTA) for 20 minutes. Cells were then stained with a PE-conjugated antibody against CD24, a FITC-conjugated antibody against CD44, and an APC-conjugated antibody against CD326 (1:100—in blocking solution) on ice for 30 minutes. The cells were then washed, reconstituted in sorting buffer (PBS pH 7.2 containing 0.5% bovine serum albumin, 2 mM EDTA)+DAPI and analyzed using a BD FACSAria II.
Panc1 and BxPC3 cells were grown in 6-well plate to ˜70% confluency, the media was changed to 0.5% FBS medium, the respective drugs were added, and they were incubated for an additional 72 hrs in a typical CO2 incubator (˜5% CO2). Subsequently, cells were kept on ice in blocking solution (PBS pH 7.2 containing 3% bovine serum albumin, 2 mM EDTA) for 20 minutes. Cells were then stained with a PE-conjugated antibody against CD24, a FITC-conjugated antibody against CD44, and an APC-conjugated antibody against CD326 (1:100 in blocking solution) on ice for 30 minutes. The cells were then washed, reconstituted in sorting buffer (PBS pH 7.2 containing 0.5% bovine serum albumin, 2 mM EDTA)+DAPI and analyzed using a BD FACSAria II.
In general terms: In flow cytometry, cells or beads pass a laser one at a time.

Assay [3] relates to Kras^+/LSL-G12D mutant spheres. Description: 3D Matrigel sphere culture of Kras mutant (Ad-Cre) pancreatic acinar cells. The assay is classed as cell-based, mouse. The procedure:
Cholinergic stimulation could in theory promote cancer indirectly through effects on stromal cells, or directly through effects on pancreatic epithelial cells. To determine whether cholinergic stimulation promoted tumor development in part through muscarinic receptors on cancer cells, the sphere forming capacity of K-Ras^+/LSL-G12D mutant pancreatic acinar cells was assessed in a 3D Matrigel culture system, with or without muscarinic stimulation. K-Ras^+/LSL-G12D mutant spheres were generated from K-Ras^+/LSL-G12D pancreatic acinar cells by treatment with adenoviral delivered Cre (Ad-Cre).
3D cultures were performed as described previously (Wescott et al., 2009). Organoids were cultured for 5 days before analysis. Adenoviral delivered Cre (Ad-Cre) was added to the cultures and medium was changed after 12 hours. […] Sphere size and […] were analyzed using ImageJ software.
To determine whether cholinergic stimulation suppresses tumor development in part through specific muscarinic receptors on cancer cells, the sphere forming capacity of Kras^+/LSL-G12D pancreatic acinar cells in a 3D Matrigel culture system in the absence and presence of muscarinic agonists and antagonists was assessed. Kras^+/LSL-G12D mutant spheres were generated from Kras^+/LSL-G12D mice by delivery of an adenoviral Cre (Ad-Cre).
3D cultures were performed as described previously^18. Organoids were cultured for 5 days before analysis. Adenoviral delivered Cre (Ad-Cre) was added to the cultures and medium was changed after 12 hours. […] Sphere size and number were analyzed using ImageJ software.

[4] abbreviates: day 5, pilocarpine 1 mM, scopolamine 10 μM, McN-34A 50 μM, pirenzepine 50 μM, vs controls.

As for `CC[C@@H]1C(=O)OC[C@@H]1Cc1cncn1C` [pilocarpine, (3S,4R)-3-ethyl-4-[(3-methylimidazol-4-yl)methyl]oxolan-2-one], in assay [1], the “tumor incidence / tumor initiation in NOD/SCID mice” value was “significant reduction; also recorded: inhibited” and the “tumor volume / size in NOD/SCID mice” value was “significant reduction”. Besides, in assay [1] (listed as Pilocarpine), the “tumor incidence / tumor initiation in NOD/SCID mice” value is “fewer” and the “tumor volume / size in NOD/SCID mice” value is “smaller”. The “CD44+CD24+EpCAM+ cancer stem cell population (FACS)” value in assay [2] was “marked suppression; also recorded: reduced; also recorded: Dose dependent decrease”. Besides, the “CD44+CD24+EpCAM+ cancer stem cell population (FACS)” value in assay [2] (listed as Pilocarpine) is on record as “remarkable suppression”. Besides, the “suppression of CD44+CD24+EpCAM+ cancer stem cells” value in assay [2] (pilocarpine at doses of 100-500 rμM, preliminary studies) is given as more than 50%. Besides, in assay [3] (setting [4]), the number of spheres entry is “significantly fewer; also recorded: reduced” and the size of spheres entry is recorded as “smaller”. Also, in assay [3] (oncogenic K-Ras allele activated by adeno-Cre virus), the “sphere formation and growth of Kras mutant spheres” value is recorded as “significant inhibitory effect; also recorded: decrease; also recorded: suppresses”.
